From patent US9597407B2, “Targeted antimicrobial moieties” (C3 Jian, Inc., priority 2009, dated 2017)
“Also recorded” adds a separate entry of the source. Square brackets hold non-standard residues; d marks the D form. Ends that are not written are not given here. dOrn = NCCC[C@@H](N)C(=O)O; Orn = NCCC[C@H](N)C(=O)O

What follows are substances tested on bacteria (assay: Binding of targeting peptides to microorganisms (Table 3)). Settings: microorganism bound by the targeting peptide; binding in aqueous buffers chosen by peptide solubility, preferably 1x PBS.

Substance | Target(s)
PF-263 (NLKKCPC; Peptide with targeting and/or antimicrobial activity) | S. epidermidis; also recorded: M. luteus; also recorded: A. baumannii
PF-304 (LVKDTSDIKNDLNNIEIVTSKNSNDIAKLKSVK; Peptide with targeting and/or antimicrobial activity) | S. mutans
PF-309 (GIPGMTAAPAEENEQEENADEE; Peptide with targeting and/or antimicrobial activity) | S. mutans; also recorded: E. coli

Same assay, conditions: microorganism the targeting peptide binds; binding in aqueous buffers that varied with peptide solubility, preferably 1x PBS

Substance | Target(s)
1T-304 (STAGEASRRTASEASRRTAAKLRG; Peptide with targeting and/or antimicrobial activity) [Peptide 1T-304] | P. gingivalis
1T-260 (NILYFIHDENQWEPQKAEIFRGSIKHCAWLSS; Peptide with targeting and/or antimicrobial activity) [Peptide 1T-260] | A. naeslundii; also recorded: P. gingivalis; also recorded: S. epidermidis; also recorded: S. gordonii; also recorded: S. mitis; also recorded: S. mutans; also recorded: S. oralis; also recorded: S. sanguinis
1T-242 (KQVQNTTLIICGTVLLGILFKSYLKSQKSV; Peptide with targeting and/or antimicrobial activity) [Peptide 1T-242] | F. nucleatum; also recorded: S. sanguinis
1T-239 (ADDLLNKRLTDLIMENAETVKTIDLDNSD; Peptide with targeting and/or antimicrobial activity) [Peptide 1T-239] | A. naeslundii; also recorded: S. gordonii; also recorded: S. mitis; also recorded: S. mutans; also recorded: S. oralis; also recorded: S. sanguinis
Py Pf 12 ([dS]KG[Orn][dS]SGK[dOrn]ES; bridge (positions not given here); not fully specified (bridges)) | P. fluorescens

Same assay, conditions: peptide binding in aqueous buffers that varied depending on peptide solubility; preferably 1x PBS

Substance | Target(s) (microorganism bound by the targeting peptide) | Target(s) (microorganisms bound by the targeting peptide)
PF-785 (MRPQHSPAGKAFVVKKITHEQS; Peptide with targeting and/or antimicrobial activity) | Mycobacteria spp. | –
PF-C068 (LNLFASI; Peptide with targeting and/or antimicrobial activity) | A. naeslundii; also recorded: F. nucleatum; also recorded: S. mutans | –
PF-S004 (VLLNIFRTLLEFFSPSNAPGAEDVPLPDTQA; Peptide with targeting and/or antimicrobial activity) | S. epidermidis and MRSA and C. jeikeium | –
PF-510 (WYLYKKQSNQNDRGIPK; Peptide with targeting and/or antimicrobial activity) | – | S. mutans; also recorded: E. coli
PF-S015 (IENLERGARRPP; Peptide with targeting and/or antimicrobial activity) | S. epidermidis and MRSA and C. jeikeium | –
PF-400 (VIAWKFRNKFENSGV; Peptide with targeting and/or antimicrobial activity) | – | S. epidermidis; also recorded: E. coli; also recorded: S. pneumoniae; also recorded: E. faecalis; also recorded: C. jeikeium

Same assay, conditions: peptide binding in aqueous buffers varied by peptide solubility; preferably 1x PBS

Substance | Target(s) (microorganism bound by the targeting peptide)
1T-94 (DQVAHSGDMLVQARRRDS; Peptide with targeting and/or antimicrobial activity) [Peptide 1T-94] | S. mitis; also recorded: S. mutans; also recorded: S. oralis
1T-177 (GTNVPTQILGYSREERFDYEPAPEQR; Peptide with targeting and/or antimicrobial activity) [Peptide 1T-177] | P. gingivalis; also recorded: S. gordonii; also recorded: S. mitis; also recorded: S. mutans; also recorded: S. oralis; also recorded: S. salivarious; also recorded: S. sanguinis
1T-18 (YSKTLHFAD; Peptide with targeting and/or antimicrobial activity) [Peptide 1T-18] | S. aureus; also recorded: S. epidermidis; also recorded: C. striatum; also recorded: P. aeruginosa
